Source: ChEMBL document CHEMBL2021877, “Dithiocarbamates strongly inhibit carbonic anhydrases and show antiglaucoma action in vivo” (J Med Chem, 2012)
Counter-ions that a name gives are not always drawn. The source made the active and inactive calls. No cut-off for these calls is given here.

Tests used:
Carbonic anhydrase 9 = Carbonic anhydrase 9 (Homo sapiens, UniProt Q16790); assay: Inhibition of human CA9 pre-incubated for 15 mins by stopped-flow CO2 hydration method
Carbonic anhydrase 1 = Carbonic anhydrase 1 (Homo sapiens, UniProt P00915); assay: Inhibition of human CA1 pre-incubated for 15 mins by stopped-flow CO2 hydration method
Carbonic anhydrase 12 = Carbonic anhydrase 12 (Homo sapiens, UniProt O43570); assay: Inhibition of human CA12 pre-incubated for 15 mins by stopped-flow CO2 hydration method
Carbonic anhydrase 2 = Carbonic anhydrase 2 (Homo sapiens, UniProt P00918); assay: Inhibition of human CA2 pre-incubated for 15 mins by stopped-flow CO2 hydration method
Oryctolagus cuniculus [1] = assay: Antiglaucoma activity in carbomer-induced glaucoma in albino rabbit assessed as reduction in intra ocular pressure dosed as 2% compound solution; format: functional, organism-based; details: Eye, TDE = time-dependent effect
Oryctolagus cuniculus [2] = assay: Antiglaucoma activity in carbomer-induced glaucoma in albino rabbit assessed as reduction in intra ocular pressure dosed as 2% compound solution measured 2 hrs post dose (vehicle treated contralateral eye Rvb = 37 to 40 mmHg); format: functional
Oryctolagus cuniculus [3] = assay: Antiglaucoma activity in carbomer-induced glaucoma in albino rabbit assessed as reduction in intra ocular pressure dosed as 2% compound solution measured 3 to 4 hrs post dose; format: functional, organism-based; details: Eye
Oryctolagus cuniculus [4] = assay: Antiglaucoma activity in carbomer-induced glaucoma in albino rabbit assessed as reduction in intra ocular pressure dosed as 2% compound solution measured 2 hrs post dose (vehicle treated contralateral eye Rvb = 37 to 39 mmHg); format: functional

Carbonic anhydrase 12, sequence (O43570 whole entry): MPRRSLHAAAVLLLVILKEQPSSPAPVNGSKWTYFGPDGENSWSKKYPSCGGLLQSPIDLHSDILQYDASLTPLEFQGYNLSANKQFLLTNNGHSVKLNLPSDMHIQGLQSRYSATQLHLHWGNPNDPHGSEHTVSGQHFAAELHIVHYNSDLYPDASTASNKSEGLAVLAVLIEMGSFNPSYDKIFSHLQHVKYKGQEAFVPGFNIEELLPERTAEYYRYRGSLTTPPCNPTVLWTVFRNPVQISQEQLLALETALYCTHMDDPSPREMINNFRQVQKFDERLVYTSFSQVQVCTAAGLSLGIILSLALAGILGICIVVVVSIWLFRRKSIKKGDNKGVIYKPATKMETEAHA
Carbonic anhydrase 1, sequence (P00915 whole entry): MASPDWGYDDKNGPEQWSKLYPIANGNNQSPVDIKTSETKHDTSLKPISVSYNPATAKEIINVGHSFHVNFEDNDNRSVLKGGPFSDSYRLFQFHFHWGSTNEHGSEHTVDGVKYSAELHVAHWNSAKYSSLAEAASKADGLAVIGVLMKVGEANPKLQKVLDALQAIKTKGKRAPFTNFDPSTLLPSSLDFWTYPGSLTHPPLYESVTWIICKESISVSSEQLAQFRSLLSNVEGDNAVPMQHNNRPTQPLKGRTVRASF

Ki (Carbonic anhydrase 9)	SMILES	further results
22.1 nM	CN1CCN(NC(=S)S)CC1	–
4.5 nM	S=C(S)NCCN1CCOCC1	–
27.4 nM	S=C(S)NCCN(CCNC(=S)S)CCNC(=S)S	–
26 nM	S=C(S)NCc1ccncc1	–
3.6 nM	S=C(S)NCCN1CCCCC1	–
57.1 nM	O=C(O)CNC(=S)S	–
4.3 nM	S=C(S)NCCCn1ccnc1	–
4.3 nM	OCCN(CCO)C(=S)S	–
4.1 nM	O=C(O)[C@@H]1CCCN1C(=S)S	–
4.6 nM	CCC(C)NC(=S)S (racemic)	–
50.3 nM	CCCCN(CCCC)C(=S)S [DIBUTYLCARBAMODITHIOATE SODIUM SALT]	–
27.4 nM	CCCCCCN(CCCCCC)C(=S)S [DIHEXYLCARBAMODITHIOATE SODIUM SALT]	–
4.5 nM	CC(C)CN(CC(C)C)C(=S)S [DIISOBUTYLCARBODITHIOIC ACID SODIUM SALT]	–
53.8 nM	CCCN(CCC)C(=S)S [DIPROPYLCARBAMODITHIOATE SODIUM SALT]	–
25.9 nM	CCCCN(CC)C(=S)S [ETHYLBUTYLCARBAMODITHIOATE SODIUM SALT]	–
37.5 nM	S=C([S-])N1CCN(C(=S)[S-])CC1.[Na+].[Na+] [PIPERAZINECARBAMODITHIOATE DISODIUM SALT]	Activity (Oryctolagus cuniculus [1]): tde; Activity (Oryctolagus cuniculus [3]): Active; Activity (Oryctolagus cuniculus [4]): 6 mmHg
29.1 nM	S=C(S)NN1CCOCC1 [POTASSIUM MORPHOLINOCARBAMODITHIOATE]	–
28.2 nM	CN(C(=S)S)c1ccccc1 [SODIUM METHYL(PHENYL)CARBAMODITHIOATE]	–
4.2 nM	S=C(S)Nc1ccccc1 [TRIETHYLAMMONIUM PHENYLCARBAMODITHIOATE]	–

SMILES	Ki (Carbonic anhydrase 9)	further results
S=C(S)N1CCCC1	70.4 nM	Ki (Carbonic anhydrase 1): 0.96 nM; Ki (Carbonic anhydrase 12): 46.1 nM; Ki (Carbonic anhydrase 2): 27.5 nM
S=C(S)Nc1nccs1	12.6 nM	–
N#CC1(c2ccccc2)CCN(C(=S)S)CC1	757 nM	–
CCN(CC)C(=S)S [DITIOCARB SODIUM]	1410 nM	Ki (Carbonic anhydrase 12): 1100 nM
S=C([S-])N1CCOCC1.[Na+] [MORPHOLINECARBAMODITHIOATE SODIUM SALT]	6.2 nM	Activity (Oryctolagus cuniculus [1]): tde; Activity (Oryctolagus cuniculus [2]): 6 mmHg; Activity (Oryctolagus cuniculus [3]): Active
CN(Cc1ccccc1)C(=S)S [SODIUM BENZYL(METHYL)CARBAMODITHIOATE]	53 nM	–
S=C(S)NCc1ccccc1 [SODIUM BENZYLCARBAMODITHIOATE]	19.2 nM	–
CN(C)C(=S)S [SODIUM DIMETHYLCARBAMODITHIOATE]	714 nM	Ki (Carbonic anhydrase 1): 699 nM; Ki (Carbonic anhydrase 12): 798 nM; Ki (Carbonic anhydrase 2): 6910 nM
